This is an account of results in ChEMBL document CHEMBL1121661, “Synthesis and antitumor activity of a series of sulfone analogues of 1,4-naphthoquinone” (1981).

What all share (assay type): functional
Assay [1] concerns Mus musculus. Kind of assay: Percent packed cell volume at 5 (mg/kg)/day.
The test system of assay [2] is Mus musculus. Kind of assay: Percent inhibition of Ehrlich ascites carcinoma growth at 10 mg/kg per day.
For assay [3], the system named is Mus musculus. In words: Percent inhibition of Ehrlich ascites carcinoma growth at 5 (mg/kg)/day.
The subject of assay [4] is Mus musculus. Kind of assay: Percent packed cell volume at 10 mg/kg per day per mouse. Further details: unit not given here.
For assay [5], the system named is Mus musculus. In words: Percent packed cell volume at 5 (mg/kg)/day per mouse.
For assay [6], the system named is Mus musculus. Kind of assay: Effect of compound on Ehrlich ascites carcinoma growth in CF1 mice at 10 mg/kg per day ip survival at day 9; 3/8. Particulars: route intraperitoneal.
In assay [7] the test system is Mus musculus. Kind of assay: Effect of compound on Ehrlich ascites carcinoma growth in CF1 mice at 5 mg/kg per day ip survival at day 9; 5/6. The following applies: route intraperitoneal.
In assay [8] the test system is Mus musculus. Kind of assay: Percent packed cell volume at 10 mg/kg per day.
For assay [9], the system named is Mus musculus. In words: Effect on P-388 lymphocytic leukemia growth at a given dose 10 mg/kg per day ip expressed as average survival days of treated mice. The following applies: route intraperitoneal.
Assay [10] relates to Mus musculus. Kind of assay: Effect of compound on P-388 lymphocytic leukemia growth at a given dose 6.25 mg/kg per day ip expressed as ratio of treated / control (T/C>125 is required for significant activity). The following applies: route intraperitoneal.
For assay [11], the system named is Mus musculus. In words: Effect of compound on P-388 lymphocytic leukemia growth at a given dose 25 mg/kg per day ip expressed as ratio of treated / control (T/C>125 is required for significant activity). The following applies: route intraperitoneal.
The subject of assay [12] is Mus musculus. In words: Effect of compound on P-388 lymphocytic leukemia growth at a given dose 5 mg/kg per day ip expressed as average survival days of treated mice. Particulars: route intraperitoneal.
For assay [13], the system named is Mus musculus. Kind of assay: Effect on P-388 lymphocytic leukemia growth at a given dose 10 mg/kg per day ip expressed as ratio of treated / control (T/C>125 is required for significant activity). Particulars: route intraperitoneal.
Assay [14] relates to Mus musculus. Kind of assay: Effect on Ehrlich ascites carcinoma growth in CF1 mice at 10 mg/kg per day ip survival at day 9; 8/8. The following applies: route intraperitoneal.
Assay [15] has as its system Mus musculus. In words: Effect of compound on P-388 lymphocytic leukemia growth at a given dose 2.5 mg/kg per day ip expressed as average survival days of treated mice. Particulars: route intraperitoneal.
The test system of assay [16] is Mus musculus. Kind of assay: Effect of compound on P-388 lymphocytic leukemia growth at a given dose 4 mg/kg per day ip expressed as average survival days of treated mice. The following applies: route intraperitoneal.
Assay [17] concerns Mus musculus. Kind of assay: Effect of compound on P-388 lymphocytic leukemia growth at a given dose 12.50 mg/kg per day ip expressed as ratio of treated / control (T/C>125 is required for significant activity). The following applies: route intraperitoneal.
The test system of assay [18] is Mus musculus. Kind of assay: Effect of compound on P-388 lymphocytic leukemia growth at a given dose 15 mg/kg per day ip expressed as ratio of treated / control. Particulars: route intraperitoneal.
The test system of assay [19] is Mus musculus. In words: Effect of compound on P-388 lymphocytic leukemia growth at a given dose 10 mg/kg per day ip expressed as ratio of treated / control. The following applies: route intraperitoneal.
The test system of assay [20] is Mus musculus. Kind of assay: Effect of compound on P-388 lymphocytic leukemia growth at a given dose 15 mg/kg per dayip expressed as average survival days of treated mice.
Assay [21] deals with Mus musculus. Kind of assay: Percent inhibition of Ehrlich ascites carcinoma growth at 200 mg/kg per day.
The test system of assay [22] is Mus musculus. In words: Percent packed cell volume at 200 mg/kg per day per mouse.
In assay [23] the test system is Mus musculus. In words: Effect of compound on Ehrlich ascites carcinoma growth in CF1 mice at 200 mg/kg per day ip survival at day 9; 6/6. The following applies: route intraperitoneal.
Assay [24] relates to Mus musculus. Kind of assay: Percent packed cell volume at 200 mg/kg per day.

For the compound `O=C1C(CO)=CS(=O)(=O)c2ccccc21`, the results for the “%” value in [1] and in assay [8] were 4.8 and 0.7, respectively. In assay [2], the inhibition in vivo at 10 mg/kg/day was found to be 99.3%. The Inhibition in [3] is 95.6%. For the same compound, the results for the Volume in [4] and in assay [5] were 0.4 and 0.07, respectively. The “Survivors at day 9” value in assay [6] came to 3; in [7], 5.

Turning to `CC(=O)OCC1=CS(=O)(=O)c2ccccc2C1=O`, in [2], the inhibition in vivo at 10 mg/kg/day was 99.5%. This compound showed a Volume in [4] of 0.33. Besides, the Days in [9] is given as 6.6; in assay [12], 11.6; in [15], 10.2; in assay [16] it was 11.3. For the same compound, the T/C in assay [10] was 107; in assay [11] it was 122; in assay [13], 69; in assay [17], 118. Also, the “Survivors at day 9” value in [14] is listed as 8. The “%” value in [8] was 2.

The compound `O=C1C(Br)=CS(=O)(=O)c2ccccc21` came in with an inhibition in vivo at 10 mg/kg/day in assay [2] of 69.9%. The T/C in assay [18] was 99; in assay [19] it was 130. In addition, the Volume in [4] was 0.99. The figures for the Days in assay [9] and in [20] were 12.4 and 9.4, respectively. The “Survivors at day 9” value in assay [14] stood at 8. Further, in [8], the “%” value stood at 38.3.

`Sc1ncnc2nc[nH]c12` [MERCAPTOPURINE ANHYDROUS]: the inhibition in vivo at 200 mg/kg/day in assay [21] came to 99.6%. This compound also registered a Volume in assay [22] of 0.7. Besides, the “Survivors at day 9” value in [23] was 6. Besides, the “%” value in assay [24] is 0.3.

By inhibition in vivo is commonly meant how much of the control response was suppressed. The term Inhibition denotes how much of the control response was suppressed.
